Measurements from US20260048047A1, “SMALL-MOLECULE ACTIVATORS OF MYCOBACTERIUM TUBERCULOSIS ADENYLYL CYCLASE” (priority 2022, published 2026).

Test system: M. tuberculosis
Assay: Extracellular activity against M. tuberculosis in cholesterol media (Alamar Blue reduction assay)
Type: cell-based, Mycobacterium tuberculosis
Conditions: Mycobacterium tuberculosis, 240 h, 7H12-Cholesterol media, 10 days; read-out: Cholesterol broth: alamar blue--EC50

Structure (SMILES)	EC50 [nM]
Cc1noc(CC(=O)N2CCC(c3nc(C4CCC(C(F)(F)F)CC4)no3)CC2)n1 (centres unmarked) [Compound 37, 2-(3-methyl-1,2,4-oxadiazol-5-yl)-1-(4-(3-(4-(trifluoromethyl)cyclohexyl)-1,2,4-oxadiazol-5-yl)piperidin-1-yl)ethan-1-one]	7020
Cc1noc(CC(=O)N2CCC(c3nc(-c4ccc(Cl)c(OC(F)(F)F)c4)no3)CC2)n1 [Compound 38]	1050
Cc1noc(CC(=O)N2CCC(c3nc(-c4ccc(OC(F)(F)F)cc4)no3)CC2)n1 [Compound 39, 2-(3-methyl-1,2,4-oxadiazol-5-yl)-1-(4-(3-(4-(trifluoromethoxy)phenyl)-1,2,4-oxadiazol-5-yl)piperidin-1-yl)ethan-1-one]	657
Cc1noc(CC(=O)N2CCC(c3nc(C4CCC(F)(F)C4)no3)CC2)n1 (centres unmarked) [Compound 40, 1-(4-(3-(3,3-difluorocyclopentyl)-1,2,4-oxadiazol-5-yl)piperidin-1-yl)-2-(3-methyl-1,2,4-oxadiazol-5-yl)ethan-1-one]	> 25000
Cc1noc(CC(=O)N2CCC(c3nc(C4CCC(F)(F)CC4)no3)CC2)n1 [Compound 41, 1-(4-(3-(4,4-difluorocyclohexyl)-1,2,4-oxadiazol-5-yl)piperidin-1-yl)-2-(3-methyl-1,2,4-oxadiazol-5-yl)ethan-1-one]	> 10000
Cc1noc(CC(=O)N2CCC(O)(c3nc(C4CCC(F)(F)CC4)no3)CC2)n1 [Compound 42, 1-(4-(3-(4,4-difluorocyclohexyl)-1,2,4-oxadiazol-5-yl)-4-hydroxypiperidin-1-yl)-2-(3-methyl-1,2,4-oxadiazol-5-yl)ethan-1-one]	> 10000
Cc1noc(CC(=O)N2CCC(c3noc(C45CC(F)(C4)C5)n3)CC2)n1 [Compound 43, 1-(4-(5-(3-fluorobicyclo[1.1.1]pentan-1-yl)-1,2,4-oxadiazol-3-yl)piperidin-1-yl)-2-(3-methyl-1,2,4-oxadiazol-5-yl)ethan-1-one]	> 25000
Cc1noc(CC(=O)N2CCC(c3nc(-c4ccc(Cl)c(F)c4)no3)CC2)n1 [Compound 44, 1-(4-(3-(4-chloro-3-fluorophenyl)-1,2,4-oxadiazol-5-yl)piperidin-1-yl)-2-(3-methyl-1,2,4-oxadiazol-5-yl)ethan-1-one]	229
Cc1noc(CC(=O)N2CCC(c3nc(-c4cc(F)cc(Cl)c4)no3)CC2)n1 [Compound 45, 1-(4-(3-(3-chloro-5-fluorophenyl)-1,2,4-oxadiazol-5-yl)piperidin-1-yl)-2-(3-methyl-1,2,4-oxadiazol-5-yl)ethan-1-one]	2190
Cc1noc(CC(=O)N2CCC(c3nc(-c4ccc(F)cc4Cl)no3)CC2)n1 [Compound 46, 1-(4-(3-(2-chloro-4-fluorophenyl)-1,2,4-oxadiazol-5-yl)piperidin-1-yl)-2-(3-methyl-1,2,4-oxadiazol-5-yl)ethan-1-one]	2970
Cc1noc(CC(=O)N2CCC(c3nc(-c4ccc(F)c(F)c4)no3)CC2)n1 [Compound 47, 1-(4-(3-(3,4-difluorophenyl)-1,2,4-oxadiazol-5-yl)piperidin-1-yl)-2-(3-methyl-1,2,4-oxadiazol-5-yl)ethan-1-one]	1450
Cc1noc(CC(=O)N2CCC(c3nc(-c4ccc(F)c(OC(F)(F)F)c4)no3)CC2)n1 [Compound 48, 1-(4-(3-(4-fluoro-3-(trifluoromethoxy)phenyl)-1,2,4-oxadiazol-5-yl)piperidin-1-yl)-2-(3-methyl-1,2,4-oxadiazol-5-yl)ethan-1-one]	730
Cc1noc(CC(=O)N2CCC(c3nc(-c4ccc(F)cc4)no3)CC2)n1 [Compound 49, 1-(4-(3-(4-fluorophenyl)-1,2,4-oxadiazol-5-yl)piperidin-1-yl)-2-(3-methyl-1,2,4-oxadiazol-5-yl)ethan-1-one]	1440
Cc1noc(CC(=O)N2CCC(c3cc(-c4ccc(F)cc4)no3)CC2)n1 [Compound 50, 1-(4-(3-(4-fluorophenyl)isoxazol-5-yl)piperidin-1-yl)-2-(3-methyl-1,2,4-oxadiazol-5-yl)ethan-1-one]	> 10000
